Test results from ChEMBL document CHEMBL4396887, “Five-Membered N-Heterocyclic Scaffolds as Novel Amino Bioisosteres at γ-Aminobutyric Acid (GABA) Type A Receptors and GABA Transporters” (J Med Chem, 2019).
Activity calls are given as the source filed them. No cut-off for these calls is given here.

Key:
[1] = target: T1, Gamma-aminobutyric acid receptor subunit rho-1 (Homo sapiens, UniProt P24046); assay: Agonist activity at recombinant human GABA-A rho-1 receptor transiently expressed in human tsA201 cells incubated for 30 mins and measured up to 90 secs by FMP dye based FLIPR membrane potential blue assay; format: cell-based
[2] = target: T2, GABA-A receptor; alpha-1/beta-2/gamma-2 (Homo sapiens) (UniProt P14867+P47870+P18507); assay: Agonist activity at recombinant human GABA-A alpha1beta2gamma2S receptor transiently expressed in human tsA201 cells assessed as GABA-induced maximum response incubated for 30 mins and measured up to 90 secs by FMP dye based FLIPR membrane potential blue assay relative to GABA; format: cell-based
cells = format: cell-based; settings: Homo sapiens, tsA201, 0.5 h
Homo sapiens [3] = species: Homo sapiens; assay: Agonist activity at recombinant human GABA-A alpha3beta2gamma2S receptor transiently expressed in human tsA201 cells assessed as GABA-induced maximum response incubated for 30 mins and measured up to 90 secs by FMP dye based FLIPR membrane potential blue assay relative to GABA; format: cell-based
[4] = target: Gamma-aminobutyric acid receptor subunit alpha-4/beta-2/gamma-2 (Homo sapiens, UniProt P18507+P47870+P48169); assay: (§1) Agonist activity at recombinant human GABA-A alpha4beta2gamma2S receptor transiently expressed in human tsA201 cells incubated for 30 mins and measured up to 90 secs by FMP dye based FLIPR membrane potential blue assay; format: cell-based; settings: read-out: EC50
[5] = target: T3, Gamma-aminobutyric acid receptor subunit alpha-4/beta-2/gamma-2 (Homo sapiens, UniProt P47870+P18507+P48169); assay: Agonist activity at recombinant human GABA-A alpha4beta2gamma2S receptor transiently expressed in human tsA201 cells assessed as GABA-induced maximum response incubated for 30 mins and measured up to 90 secs by FMP dye based FLIPR membrane potential blue assay relative to GABA; format: cell-based
[6] = target: T4, Gamma-aminobutyric acid receptor subunit alpha-5/beta-2/gamma-2 (Homo sapiens, UniProt P18507+P31644+P47870); assay: Agonist activity at recombinant human GABA-A alpha5beta2gamma2S receptor transiently expressed in human tsA201 cells incubated for 30 mins and measured up to 90 secs by FMP dye based FLIPR membrane potential blue assay; format: cell-based
T4 sequence (P47870 whole entry): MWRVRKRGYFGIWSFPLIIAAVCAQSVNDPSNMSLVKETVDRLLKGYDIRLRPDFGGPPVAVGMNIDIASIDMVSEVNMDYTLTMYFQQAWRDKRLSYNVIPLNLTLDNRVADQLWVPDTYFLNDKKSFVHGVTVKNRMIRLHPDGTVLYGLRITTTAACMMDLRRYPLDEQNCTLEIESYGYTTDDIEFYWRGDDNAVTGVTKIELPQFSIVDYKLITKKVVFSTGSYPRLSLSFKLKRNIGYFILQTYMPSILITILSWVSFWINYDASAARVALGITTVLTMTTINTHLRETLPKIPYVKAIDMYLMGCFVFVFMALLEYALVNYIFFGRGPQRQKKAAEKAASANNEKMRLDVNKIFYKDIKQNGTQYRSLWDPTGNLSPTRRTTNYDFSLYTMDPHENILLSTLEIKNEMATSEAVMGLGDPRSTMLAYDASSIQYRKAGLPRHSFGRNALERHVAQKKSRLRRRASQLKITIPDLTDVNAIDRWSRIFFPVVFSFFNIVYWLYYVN
T4 sequence (P18507 whole entry): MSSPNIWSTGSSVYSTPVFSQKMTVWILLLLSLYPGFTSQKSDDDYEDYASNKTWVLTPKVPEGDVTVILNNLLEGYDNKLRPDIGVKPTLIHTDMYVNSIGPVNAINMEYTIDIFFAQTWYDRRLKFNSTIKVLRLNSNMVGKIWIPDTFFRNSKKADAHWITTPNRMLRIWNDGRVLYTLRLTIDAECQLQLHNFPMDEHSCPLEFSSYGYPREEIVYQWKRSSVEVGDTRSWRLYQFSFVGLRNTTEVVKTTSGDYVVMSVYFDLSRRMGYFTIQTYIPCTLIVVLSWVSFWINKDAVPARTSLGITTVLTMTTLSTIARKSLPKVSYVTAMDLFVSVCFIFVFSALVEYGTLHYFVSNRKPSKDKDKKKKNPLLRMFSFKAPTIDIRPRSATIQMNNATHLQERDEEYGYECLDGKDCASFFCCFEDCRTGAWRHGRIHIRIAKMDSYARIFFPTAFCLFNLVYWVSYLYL
T4 sequence (P31644 whole entry): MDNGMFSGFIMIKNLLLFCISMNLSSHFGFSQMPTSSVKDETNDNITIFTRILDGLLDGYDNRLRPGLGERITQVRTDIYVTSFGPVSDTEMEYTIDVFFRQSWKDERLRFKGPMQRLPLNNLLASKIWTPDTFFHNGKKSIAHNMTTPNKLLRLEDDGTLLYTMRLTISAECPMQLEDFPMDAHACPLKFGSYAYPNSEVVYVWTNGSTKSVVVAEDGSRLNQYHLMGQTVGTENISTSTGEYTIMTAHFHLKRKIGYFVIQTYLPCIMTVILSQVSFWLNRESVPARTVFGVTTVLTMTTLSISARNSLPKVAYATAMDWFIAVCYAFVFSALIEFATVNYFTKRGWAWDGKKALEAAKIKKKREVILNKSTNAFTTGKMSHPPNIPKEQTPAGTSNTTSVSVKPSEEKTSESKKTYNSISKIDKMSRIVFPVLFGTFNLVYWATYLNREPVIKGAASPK

[7] = target: Gamma-aminobutyric acid receptor subunit alpha-5/beta-2/gamma-2 (Homo sapiens) (UniProt P47870+P18507+P31644); assay: Agonist activity at recombinant human GABA-A alpha5beta2gamma2S receptor transiently expressed in human tsA201 cells assessed as GABA-induced maximum response incubated for 30 mins and measured up to 90 secs by FMP dye based FLIPR membrane potential blue assay relative to GABA; format: cell-based
[8] = target: T1, Gamma-aminobutyric acid receptor subunit rho-1; assay: Agonist activity at recombinant human GABA-A rho-1 receptor transiently expressed in human tsA201 cells assessed as GABA-induced maximum response incubated for 30 mins and measured up to 90 secs by FMP dye based FLIPR membrane potential blue assay relative to GABA; format: cell-based
[9] = Ionization constant, pKa2 of the compound at 1 mM by potentiometric titration assay; format: physicochemical
[10] = target: T1, Gamma-aminobutyric acid receptor subunit rho-1; assay: Agonist activity at recombinant human GABA-A rho-1 receptor transiently expressed in human tsA201 cells at >= 100 uM incubated for 30 mins and measured up to 90 secs by FMP dye based FLIPR membrane potential blue assay; format: cell-based
[11] = target: GABA-A receptor; anion channel; assay: Displacement of [3H]muscimol from GABA(A) receptor in Sprague-Dawley rat cortical synaptic membranes by liquid scintillation counting
[12] = target: T2, GABA-A receptor; alpha-1/beta-2/gamma-2 (Homo sapiens); assay: (§2) Agonist activity at recombinant human GABA-A alpha1beta2gamma2S receptor transiently expressed in human tsA201 cells incubated for 30 mins and measured up to 90 secs by FMP dye based FLIPR membrane potential blue assay; format: cell-based
[13] = target: T5, GABA-A receptor; alpha-1/beta-2/gamma-2 (Homo sapiens, UniProt P14867+P47870+P18507); assay: as §2; format: cell-based
T5 sequence (P14867 whole entry): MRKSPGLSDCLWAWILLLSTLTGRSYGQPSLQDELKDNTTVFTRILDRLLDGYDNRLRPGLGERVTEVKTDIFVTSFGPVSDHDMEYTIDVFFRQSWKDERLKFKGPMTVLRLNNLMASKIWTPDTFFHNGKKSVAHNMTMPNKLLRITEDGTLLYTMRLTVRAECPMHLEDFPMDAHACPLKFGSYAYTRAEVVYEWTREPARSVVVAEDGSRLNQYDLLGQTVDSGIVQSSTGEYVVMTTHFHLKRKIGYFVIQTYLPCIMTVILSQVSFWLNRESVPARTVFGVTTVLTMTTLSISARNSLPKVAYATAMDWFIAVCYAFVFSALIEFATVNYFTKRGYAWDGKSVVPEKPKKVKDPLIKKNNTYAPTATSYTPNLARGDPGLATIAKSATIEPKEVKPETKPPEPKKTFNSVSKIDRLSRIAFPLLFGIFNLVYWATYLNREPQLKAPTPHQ
T5 sequence (P47870 whole entry): T4 sequence (P47870 whole entry)
T5 sequence (P18507 whole entry): T4 sequence (P18507 whole entry)

[14] = target: T3, Gamma-aminobutyric acid receptor subunit alpha-4/beta-2/gamma-2; assay: as §1; format: cell-based
[15] = target: T2, GABA-A receptor; alpha-1/beta-2/gamma-2 (Homo sapiens); assay: Agonist activity at recombinant human GABA-A alpha1beta2gamma2S receptor transiently expressed in human tsA201 cells at >= 100 uM incubated for 30 mins and measured up to 90 secs by FMP dye based FLIPR membrane potential blue assay; format: cell-based
[16] = target: T3, Gamma-aminobutyric acid receptor subunit alpha-4/beta-2/gamma-2; assay: Agonist activity at recombinant human GABA-A alpha4beta2gamma2S receptor transiently expressed in human tsA201 cells at >= 300 uM incubated for 30 mins and measured up to 90 secs by FMP dye based FLIPR membrane potential blue assay; format: cell-based
[17] = target: T1, Gamma-aminobutyric acid receptor subunit rho-1; assay: Agonist activity at recombinant human GABA-A rho-1 receptor transiently expressed in human tsA201 cells at 300 uM incubated for 30 mins and measured up to 90 secs by FMP dye based FLIPR membrane potential blue assay; format: cell-based
[18] = target: T1, Gamma-aminobutyric acid receptor subunit rho-1; assay: Antagonist activity at recombinant human GABA-A rho-1 receptor transiently expressed in human tsA201 cells incubated for 30 mins and measured up to 90 secs by FMP dye based FLIPR membrane potential blue assay; format: cell-based
Homo sapiens [19] = species: Homo sapiens; assay: Agonist activity at recombinant human GABA-A alpha3beta2gamma2S receptor transiently expressed in human tsA201 cells at >= 100 uM incubated for 30 mins and measured up to 90 secs by FMP dye based FLIPR membrane potential blue assay; format: cell-based
[20] = target: T3, Gamma-aminobutyric acid receptor subunit alpha-4/beta-2/gamma-2; assay: Agonist activity at recombinant human GABA-A alpha4beta2gamma2S receptor transiently expressed in human tsA201 cells at >= 100 uM incubated for 30 mins and measured up to 90 secs by FMP dye based FLIPR membrane potential blue assay; format: cell-based
Homo sapiens [21] = species: Homo sapiens

T1 sequence (P24046 whole entry): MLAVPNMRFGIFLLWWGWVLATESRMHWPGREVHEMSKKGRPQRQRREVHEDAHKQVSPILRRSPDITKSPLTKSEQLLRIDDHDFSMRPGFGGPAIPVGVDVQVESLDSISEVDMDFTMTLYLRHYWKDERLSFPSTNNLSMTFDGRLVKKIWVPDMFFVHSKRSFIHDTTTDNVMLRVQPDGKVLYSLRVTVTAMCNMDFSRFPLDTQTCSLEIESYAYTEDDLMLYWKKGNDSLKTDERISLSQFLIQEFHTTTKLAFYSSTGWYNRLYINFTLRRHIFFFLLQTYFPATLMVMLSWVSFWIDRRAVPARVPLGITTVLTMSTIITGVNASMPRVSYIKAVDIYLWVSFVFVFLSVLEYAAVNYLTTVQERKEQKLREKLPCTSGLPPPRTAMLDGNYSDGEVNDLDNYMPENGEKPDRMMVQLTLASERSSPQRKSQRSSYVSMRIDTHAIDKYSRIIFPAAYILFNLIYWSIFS
T3 sequence (P48169 whole entry, one chain of several): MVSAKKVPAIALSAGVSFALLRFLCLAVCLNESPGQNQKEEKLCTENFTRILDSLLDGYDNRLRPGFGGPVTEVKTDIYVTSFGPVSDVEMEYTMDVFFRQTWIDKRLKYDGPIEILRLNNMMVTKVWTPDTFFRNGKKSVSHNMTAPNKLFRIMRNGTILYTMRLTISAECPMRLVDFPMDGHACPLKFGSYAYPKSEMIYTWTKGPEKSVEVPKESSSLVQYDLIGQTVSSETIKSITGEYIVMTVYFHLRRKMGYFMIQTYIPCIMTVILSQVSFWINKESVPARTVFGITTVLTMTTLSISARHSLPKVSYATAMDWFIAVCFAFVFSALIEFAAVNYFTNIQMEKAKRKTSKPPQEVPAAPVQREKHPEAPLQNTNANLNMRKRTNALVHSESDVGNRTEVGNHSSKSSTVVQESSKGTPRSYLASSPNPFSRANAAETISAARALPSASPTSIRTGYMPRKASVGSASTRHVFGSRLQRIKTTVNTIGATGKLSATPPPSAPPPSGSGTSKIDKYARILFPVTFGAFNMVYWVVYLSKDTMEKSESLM
Sequence of Gamma-aminobutyric acid receptor subunit alpha-4/beta-2/gamma-2 (Homo sapiens, UniProt P18507+P47870+P48169) (P48169 whole entry, one chain of several): as above

SMILES	Rmax [2]	EC50 (cells; read-out: EC50) [µM]	EC50 (cells; read-out: pEC50 (converted)) [µM]	Rmax (Homo sapiens [3])	Rmax [5]	EC50 [6] [µM]	Rmax [7] [%]	Rmax [8]	pKa at 1000 µM [9]	Activity [10]	Ki [11] [µM]	pEC50 [12]	EC50 [13]	EC50 [14]	pEC50 [14]	Activity [15]	other results
O=C(O)Cc1c[nH]cn1 [IMIDAZOLE ACETIC ACID]	46%	8.1	8.13	89%	81%	1.8	92	46%	7.13	Active	–	–	–	–	–	–	EC50 ([1]; read-out: EC50): 4.6 µM; EC50 [4]: 19 µM
CC1(CC(=O)O)CSC(N)=N1 (configuration not stated)	inactive	26	25.7	80%	inactive	4.5	92	–	–	–	2.2	inactive	Not Active	Not Active	inactive	Active	Activity [16]: Active; Activity [17]: inactive; IC50 [18]: 300 µM
Nc1nc(CC(=O)O)cs1	inactive	–	–	inactive	inactive	24	85	inactive	6.08	Active	32	inactive	Not Active	Not Active	inactive	Active	EC50 [1]: Not Active; pEC50 [1]: inactive; Activity (Homo sapiens [19]): Active; Activity [20]: Active; pEC50 (Homo sapiens [21]): inactive
